Patent US20200009118A1, “COMPOSITIONS AND METHODS FOR THE TREATMENTOF NEURODEGENERATIVE AND OTHER DISEASES” (Glialogix, Inc., priority 2017, published 2020)
Blank lines part the entries; values can stand above or below the molecule they belong to.

Legend:
[1] = test system: Lcn-2 mRNA in primary rat astrocyte cells; experiment: qPCR of Lcn-2 mRNA in primary astrocytes; type: cell-based; conditions: astrocyte media, control gene gamma-actin
Experimental: (§1) Primary rat astrocyte cells were purchased from All Cells (Catalog #RCTX-001F, Alameda, Calif.), thawed and resuspended in 13.4 ml of DMEM media (Catalog #12-614F, Lonza, Allendale, N.J.) supplemented with 15% v/v FBS (Catalog #F4135, Sigma-Aldrich, St. Louis, Mo.) and 560 μL aliquoted into wells in a 24-well plate. Cells were incubated at 37° C. with 5% CO2. For each qPCR experiment, 2-3 wells (approximately 42,000-63,000 cells) were transferred to a new 24-well plate with fresh astrocyte media, composed of 50% v/v DMEM, 50% v/v Neurobasal media (Catalog #12348-017), Life Technologies, supplemented with 2 mM glutamine, 300 μM L-cystine. Following 24 hours, cells were then mixed and aliquoted into 24 well plates at approximately 10,000 cells per well in the same media. Compounds to be tested were then added at the indicated concentrations and cells harvested 18 hours later by washing once with PBS (Catalog #P5493, Sigma-Aldrich) and then treated with 300 μl of StemProAccutase cell dissociation reagent (Catalog #A11105-01, Life Technologies) and incubated for 5-10 minutes at 37° C. PBS (300 μl) was added and the cells spun down in a microfuge for 5 minutes at 2,000×g at 4° C. The supernatant was removed and mRNA was isolated from the cells by using the Purelink microscale RNA extraction kit (Catalog #12183016, Life Technologies) according to the manufacturer's instructions. The mRNA resuspended in 12-22 μl of RNase-free water. cDNA was prepared by use of the Superscript VILO kit (Catalog #11755050, Life Technologies) according to the manufacturer's instructions. The cDNA was eluted in a final volume of 20 μl RNase-free water in and 4 μl was used for each qPCR reaction. qPCR reactions and primers were as described in Example 11.
(§2) To determine if tunicamycin increased levels of xCT mRNA, Tunicamycin (5 ng/ml) was added to the primary astrocyte cell cultures in astrocyte media. xCT gene expression was determined by qPCR after 18 hours of exposure to tunicamycin.
(§3) The Cycle threshold is abbreviated Ct. The change in Ct equals [Ct (minus test agent)−Ct (plus test agent)]. Changes in Ct of the test genes xCT and Lcn-2 are normalized by subtracting the change in Ct of the control gene, either gamma-actin or Hypoxanthine-guanine phosphoribosyl transferase (HPRT). Ct values are converted to absolute values by the formula: absolute value=2^^(normalized change in Ct). Absolute values are converted to percent change by multiplying the absolute value by 100.
(§4) Using the methods described in Example 11, various agents known to cause activation of neuroinflammatory cells and/or cause or reflect stress and damage to neurons, axons and/or oligodendrocytes were tested for causing an increase in xCT levels in primary rat astrocytes.

[2] = test system: xCT mRNA in primary rat astrocyte cells; experiment: qPCR of xCT mRNA in primary astrocytes; type: cell-based; conditions: astrocyte media, control gene gamma-actin
Experimental: as §1, §2, §3, §4

[3] = test system: xCT mRNA in primary rat microglial cells; experiment: qPCR of xCT mRNA in primary microglia; type: cell-based; conditions: control gene gamma-actin
Experimental: (§5) Following 24 hours, cells were then mixed and aliquoted in to 96 wells at 7,000-20,000 cells per well in fresh media, either complete media (microglia) or minimal media (100 mL Neurobasal Media (#12348-017, Life Tech) supplemented with 1 mL N2 supplement (#17502-048, Life Tech) and 0.5 mM GlutaMax (#35050-061, Life Tech). Compounds to be tested were then added at the indicated concentrations and cells harvested 18 hours later by centrifugation at 2000×g, 5 minutes at 4° C. mRNA was isolated from the cells by use of the Purelink microscale RNA extraction kit (Catalog #12183016, Life Technologies) kit and the mRNA resuspended in 12-22 μl of RNase-free water according to the manufacturer's instructions. cDNA was prepared by use of the Superscript VILO kit (Catalog #11755050, Life Technologies) according to the manufacturer's instructions. The cDNA was eluted in a final volume of 20 μl RNase-free water and 4 μl was used for each qPCR reaction. For the real-time qPCR reactions, primers and reagents were supplied by Life Technologies and used according to the manufacturer's instructions. The detection molecule was the TaqMan probe with FAM dye label on 5′ end that binds to non-labeled primer pairs. The qPCR machine was a model 7500 Fast Real Time machine from ABI and used according to the manufacturer's instructions. 4 μl of the cDNA reaction was used for each qPCR reactions in a final volume of 20 μl. […] mRNA levels were quantitated by measuring the Cycle threshold (Ct) for each qPCR reaction using the standard algorithm supplied with the ABI 7500 Fast qPCR machine without modification. The Ct is defined as the number of cycles required for the fluorescent signal to cross the threshold (e.g. exceeds background level). […] The Cycle threshold is abbreviated Ct. The change in Ct equals [Ct (minus test agent)−Ct (plus test agent)]. Changes in Ct of the test genes xCT and IL1-beta are normalized by subtracting the change in Ct of the control gene, either gamma-actin or Hypoxanthine-guanine phosphoribosyl transferase (HPRT). […] Using the methods described in Example 11, various agents reported to cause activation of neuroinflammatory cells and/or known to cause or reflect damage to neurons, axons and/or oligodendrocytes were tested for their effect on xCT levels in primary rat microglia.

xCT = biological target: T1, xCT (Rattus norvegicus, UniProt A0A8I6AB70); experiment: Extracellular glutamate from primary astrocytes (Amplex Red Glutamic Acid/Glutamate Oxidase Assay); type: cell-based; conditions: TNF-alpha 100 μg/ml 18 hours in astrocyte media, no sulfasalazine
T1 construct: host or cells: primary rat astrocytes
T1 sequence (A0A8I6AB70 1-502): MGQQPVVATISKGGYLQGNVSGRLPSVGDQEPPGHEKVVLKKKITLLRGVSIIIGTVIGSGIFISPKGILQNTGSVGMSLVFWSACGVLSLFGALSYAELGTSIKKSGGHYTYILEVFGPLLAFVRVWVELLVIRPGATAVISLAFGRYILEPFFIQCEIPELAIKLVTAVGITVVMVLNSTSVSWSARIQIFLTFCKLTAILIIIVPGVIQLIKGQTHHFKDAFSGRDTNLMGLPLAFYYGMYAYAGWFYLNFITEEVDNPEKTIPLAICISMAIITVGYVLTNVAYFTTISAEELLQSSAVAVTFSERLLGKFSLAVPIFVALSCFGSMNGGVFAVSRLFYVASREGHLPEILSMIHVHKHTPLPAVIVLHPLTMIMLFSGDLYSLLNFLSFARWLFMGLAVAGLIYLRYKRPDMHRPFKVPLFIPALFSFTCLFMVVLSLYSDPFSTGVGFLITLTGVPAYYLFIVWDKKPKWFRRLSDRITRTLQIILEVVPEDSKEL
T1 sequence (Q794F9 whole entry partner): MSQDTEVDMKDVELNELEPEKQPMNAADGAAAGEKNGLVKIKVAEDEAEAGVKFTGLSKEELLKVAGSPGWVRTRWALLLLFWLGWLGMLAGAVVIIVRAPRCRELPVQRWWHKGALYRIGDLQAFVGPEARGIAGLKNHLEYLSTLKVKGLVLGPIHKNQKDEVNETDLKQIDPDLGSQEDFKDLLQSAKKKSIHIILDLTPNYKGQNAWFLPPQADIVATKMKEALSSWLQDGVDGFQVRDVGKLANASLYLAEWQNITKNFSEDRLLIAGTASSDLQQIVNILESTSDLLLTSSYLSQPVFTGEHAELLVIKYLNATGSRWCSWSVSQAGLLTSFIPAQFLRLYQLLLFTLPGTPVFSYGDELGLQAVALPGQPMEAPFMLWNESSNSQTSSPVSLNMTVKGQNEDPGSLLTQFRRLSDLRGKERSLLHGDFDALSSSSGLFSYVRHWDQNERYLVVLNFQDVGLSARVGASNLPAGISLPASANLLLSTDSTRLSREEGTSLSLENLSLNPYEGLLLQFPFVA
Source text: xCT is a cystine-glutamate exchange protein that imports extracellular cystine in exchange for exporting intracellular glutamate. xCT activity can be measured by measuring the level of the extracellular glutamate that is exported. For detection of extracellular glutamate, the Amplex Red Glutamic Acid/Glutamate Oxidase Assay Kit from Life Technologies (Catalog #A-1222, Grand Island, N.Y.) was used following the manufacturer's instructions. Fluorescence from the Amplex Red fluorophore is directly proportional to glutamate concentration and was detected on an Enspire plate reader (Perkin-Elmer (Model #2300, Santa Clara, Calif.) with excitation wavelength at 530 nm and detection wavelength at 590 nm according to the manufacturer's instructions.
Astrocytes were grown in 24-well microtiter plates at a density of approximately 10,000 cells/well in a total volume of 400 μl of astrocyte media. Cells were incubated 18 hours in either astrocyte media plus 100 μM cystine (Catalog #C8755; Sigma-Aldrich) or astrocyte media plus 100 μM cystine plus TNF-alpha (100 μg/ml). After 18 hours, the media was removed and the adherent astrocytes washed twice with PBS and then 400 μL of minimal media was added to the cells. The minimal media was EBSS (catalog #E3024, Sigma-Aldrich) supplemented with 100 μM cystine and 10 mM D-glucose (catalog #G8769, Sigma-Aldrich).
The top 25 μL of the supernatant was then transferred to a 0.5 ml microfuge tube and the aliquots frozen at −80.
For the glutamate assay, samples of the media were thawed, pipetted up and down to ensure mixing and 20 μl added to 80 μl of the Amplex Red assay mix in a 96-well microtiter plate (catalog #M4436, Greiner, Frickenhausen, Germany). The reactions were covered in aluminum foil and allowed to proceed for 30 minutes at 37° C. and then fluorescence measured as described above.
Concurrently with analysis of the astrocyte samples, a standard curve of the Amplex Red glutamate assay in the minimal media was prepared following the manufacturer's instructions and using known concentrations of glutamate: 0, 0.5, 1, 2 and 4 μM. Table 19 gives the numerical results of the standard curve assay and the results are depicted graphically in FIG. 17.

[4] = test system: IL1-beta mRNA in primary rat microglial cells; experiment: qPCR of IL1-beta mRNA in primary microglia; type: cell-based; conditions: control gene gamma-actin
Experimental: as §5

[5] = test system: SOD1^G93A transgenic mice; conditions: cited from earlier work
[6] = for Cmax GB: pH 2; for AUC / Cmax IB: pH 5.5
[7] = cited from earlier work
[8] = 100 ng/ml, complete media, 18 hours
[9] = published results in the SOD1 mouse model
[10] = 100 ng/ml, minimal media, 18 hours

Calculated glutamate levels (xCT; 30 minutes in minimal media): 2.88 µM
Fluorescence units (xCT; 30 minutes in minimal media): 13398
Calculated glutamate levels (xCT; 120 minutes in minimal media): 9.05 µM
Fluorescence units (xCT; 120 minutes in minimal media): 34307
Calculated glutamate levels (xCT; 240 minutes in minimal media): 13.82 µM
Fluorescence units (xCT; 240 minutes in minimal media): 50468
Molecule: TNF-alpha
Lcn-2, Percent change normalized ([1]; 100 ng/ml): 244%
xCT, Change in Ct normalized to control gene ([2]; 100 ng/ml): 1.376
xCT, Fold change normalized ([2]; 100 ng/ml): 2.60
xCT, Percent change normalized ([2]; 100 ng/ml): 260%
xCT, Change in Ct normalized to control gene [3, 8]: 3.214
xCT, Fold (absolute) change normalized [3, 8]: 9.3
xCT, Percent change normalized [3, 8]: 930%
IL1-beta, Percent change normalized [4, 8]: 3,000%

Molecule: CC(C)Cc1ccc(C(C)C(=O)O)cc1 (stereo not drawn) [ibuprofen]
decreased lifespan after onset of neurological disease [5, 9]: 10%

Molecule: Nc1nc2ccc(OC(F)(F)F)cc2s1 [riluzole]
increased lifespan after onset of neurological disease [5, 9]: 1%
increased absolute lifespan ([5]; same SOD1 model under similar conditions, Lincecum et al.): 1.6%

Molecule: IL-17A: inflammatory cytokine
Lcn-2, Percent change normalized ([1]; 100 ng/ml): 123%
xCT, Change in Ct normalized to control gene ([2]; 100 ng/ml): 0.351
xCT, Fold change normalized ([2]; 100 ng/ml): 1.28
xCT, Percent change normalized ([2]; 100 ng/ml): 128%
xCT, Change in Ct normalized to control gene ([3]; 10 ng/ml, complete media): 1.652
xCT, Fold change normalized ([3]; 10 ng/ml, complete media): 3.1
xCT, Percent change normalized ([3]; 10 ng/ml, complete media): 314%

Molecule: O=C(O)c1cc(/N=N/c2ccc(S(=O)(=O)Nc3ccccn3)cc2)ccc1O [Amorphous sulfasalazine, sulfasalazine]
Cmax GB [6]: 154 µg/mL
AUC [6]: 30,300 min * ug/mL
Cmax IB [6]: 372 µg/mL

Molecule: Poly I/C
Lcn-2, Percent change normalized ([1]; 10 ug/ml): 76%
xCT, Change in Ct normalized to control gene ([2]; 10 ug/ml): 1.471
xCT, Fold change normalized ([2]; 10 ug/ml): 2.77
xCT, Percent change normalized ([2]; 10 ug/ml): 277%
xCT, Change in Ct normalized to control gene [3, 8]: 6.186
xCT, Fold (absolute) change normalized [3, 8]: 72.8
xCT, Percent change normalized [3, 8]: 7,281%
xCT, Change in Ct normalized to control gene [3, 10]: 3.619
xCT, Fold (absolute) change normalized [3, 10]: 12.3
xCT, Percent change normalized [3, 10]: 1229%
IL1-beta, Percent change normalized [4, 8]: 1,900%
IL1-beta, Percent change normalized [4, 10]: 1,099%

Molecule: O=C(O)c1cc(/N=N/c2ccc(S(=O)(=O)Nc3ccccn3)cc2)ccc1O [Crystalline sulfasalazine, sulfasalazine]
Cmax GB [6]: 15 µg/mL
AUC [6]: 22,200 min * ug/mL
Cmax IB [6]: 282 µg/mL

Molecule: A-beta 1-40: A-beta 1-40 peptide, misfolded/aggregated protein
Lcn-2, Percent change normalized ([1]; 2 μg/ml): 130%
Lcn-2, Percent change normalized ([1]; 20 ug/ml): 140%
xCT, Change in Ct normalized to control gene ([2]; 2 μg/ml): 0.276
xCT, Fold change normalized ([2]; 2 μg/ml): 1.21
xCT, Percent change normalized ([2]; 2 μg/ml): 121%
xCT, Change in Ct normalized to control gene ([2]; 20 ug/ml): 0.951
xCT, Fold change normalized ([2]; 20 ug/ml): 1.93
xCT, Percent change normalized ([2]; 20 ug/ml): 193%

Molecule: IFN-gamma: inflammatory cytokine
xCT, Change in Ct normalized to control gene ([3]; 30 ng/ml, complete media): 1.417
xCT, Fold change normalized ([3]; 30 ng/ml, complete media): 2.7
xCT, Percent change normalized ([3]; 30 ng/ml, complete media): 270%
xCT, Change in Ct normalized to control gene [3, 8]: 1.636
xCT, Fold (absolute) change normalized [3, 8]: 3.1
xCT, Percent change normalized [3, 8]: 311%
IL1-beta, Percent change normalized ([4]; 30 ng/ml, complete media): 2,043%
IL1-beta, Percent change normalized [4, 8]: 446%

Molecule: Nc1ccc(S(=O)(=O)Nc2ccccn2)cc1 [Sulfapyridine, sulfapyridine]
oral bioavailability (reaching the circulation following oral dosing) [7]: > 70%

B1: IL-4: anti-inflammatory cytokine, tested as a control (protein, UniProt P05112 25-153, looked up)
Interleukin-4: HKCDITLQEIIKTLNSLTEQKTLCTELTVTDIFAASKNTTEKETFCRAATVLRQFYSHHEKDTRCLGATAQQFHRHKQLIRFLKRLDRNLWGLAGLNSCPVKEANQSTLENFLERLKTIMREKYSKCSS
Lcn-2, Percent change normalized ([1]; 100 ng/ml): 103%
xCT, Change in Ct normalized to control gene ([2]; 100 ng/ml): −0.097
xCT, Fold change normalized ([2]; 100 ng/ml): 0.93
xCT, Percent change normalized ([2]; 100 ng/ml): 93%
xCT, Change in Ct normalized to control gene [3, 8]: −0.147
xCT, Fold (absolute) change normalized [3, 8]: 0.9
xCT, Percent change normalized [3, 8]: 90%
